Among the data in ChEMBL document CHEMBL1149662, “Design and synthesis of a library of tertiary amides: evaluation as mimetics of the melanocortins' active core” (Bioorg Med Chem, 2007) are Ki values, retold here.

For assay [1], the target named is Melanocyte-stimulating hormone receptor (Mus musculus, UniProt Q01727). Briefly: Displacement of [125I]NDP-MSH from MC1 receptor in mouse B16 cells. It counts as cell-based.
A further assay deals with Melanocortin receptor 5 (Homo sapiens, UniProt P33032). Nature of the assay: Displacement of [125I]NDP-MSH from human recombinant MC5 receptor expressed in Sf9 cells. In general terms: In a radioligand displacement assay an active substance lowers the binding of a labelled ligand.
Chain of Melanocortin receptor 5 (P33032 whole entry): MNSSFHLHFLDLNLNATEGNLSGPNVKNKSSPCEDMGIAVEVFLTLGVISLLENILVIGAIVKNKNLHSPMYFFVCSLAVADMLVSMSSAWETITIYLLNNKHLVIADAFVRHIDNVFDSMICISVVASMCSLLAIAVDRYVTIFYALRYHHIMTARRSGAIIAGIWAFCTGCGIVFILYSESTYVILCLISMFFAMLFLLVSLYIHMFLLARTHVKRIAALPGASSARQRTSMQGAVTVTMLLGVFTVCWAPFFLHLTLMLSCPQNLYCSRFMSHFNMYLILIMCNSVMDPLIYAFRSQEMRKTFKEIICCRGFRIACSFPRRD
The target in another assay is Melanocortin receptor 3 (Homo sapiens, UniProt P41968). Briefly: Displacement of [125I]NDP-MSH from human recombinant MC3 receptor expressed in Sf9 cells.
Chain of Melanocortin receptor 3 (P41968 whole entry): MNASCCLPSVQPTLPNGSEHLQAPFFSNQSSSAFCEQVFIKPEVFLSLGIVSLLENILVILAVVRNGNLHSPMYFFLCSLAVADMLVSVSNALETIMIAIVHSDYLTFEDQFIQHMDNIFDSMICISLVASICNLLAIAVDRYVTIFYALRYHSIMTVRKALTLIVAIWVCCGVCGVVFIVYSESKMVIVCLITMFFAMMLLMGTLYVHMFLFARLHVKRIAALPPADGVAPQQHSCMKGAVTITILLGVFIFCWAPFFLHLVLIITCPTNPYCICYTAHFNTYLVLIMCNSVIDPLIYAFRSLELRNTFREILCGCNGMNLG
The target in a further assay is Melanocortin receptor 4 (Homo sapiens, UniProt P32245). Nature of the assay: Displacement of [125I]NDP-MSH from human recombinant MC4 receptor expressed in Sf9 cells.
Chain of Melanocortin receptor 4 (P32245 whole entry): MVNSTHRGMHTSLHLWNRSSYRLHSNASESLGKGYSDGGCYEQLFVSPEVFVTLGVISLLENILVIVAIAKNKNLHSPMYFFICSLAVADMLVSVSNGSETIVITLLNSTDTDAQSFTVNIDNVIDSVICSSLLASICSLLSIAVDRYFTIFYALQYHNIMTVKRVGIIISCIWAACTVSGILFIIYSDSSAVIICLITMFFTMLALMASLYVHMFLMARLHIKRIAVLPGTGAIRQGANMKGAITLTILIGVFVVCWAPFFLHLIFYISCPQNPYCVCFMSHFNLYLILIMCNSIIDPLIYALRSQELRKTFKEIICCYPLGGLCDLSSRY

Broadly, the Ki is the equilibrium dissociation constant of an inhibitor or competing ligand from its target.

Chain of Melanocyte-stimulating hormone receptor (Q01727 whole entry): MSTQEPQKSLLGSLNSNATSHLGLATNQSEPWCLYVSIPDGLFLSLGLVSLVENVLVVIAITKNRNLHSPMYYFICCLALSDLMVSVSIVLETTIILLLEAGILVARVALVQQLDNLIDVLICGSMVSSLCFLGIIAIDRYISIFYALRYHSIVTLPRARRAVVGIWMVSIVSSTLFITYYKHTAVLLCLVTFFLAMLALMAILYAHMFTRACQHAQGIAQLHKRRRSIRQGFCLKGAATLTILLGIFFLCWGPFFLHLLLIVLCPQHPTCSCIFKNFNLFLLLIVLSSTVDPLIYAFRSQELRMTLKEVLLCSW

For the compound `NCCCN(CCCc1ccccc1)C(=O)Cc1c[nH]c2ccccc12`, the Ki in assay [1] amounted to 5 µM; on Melanocortin receptor 5, 13 µM; at Melanocortin receptor 3 it was 5.7 µM; on Melanocortin receptor 4, 32 µM.

As to `NCCCCCN(Cc1ccccc1)C(=O)CCCc1c[nH]c2ccccc12`, the Ki in assay [1] was 3.2 µM; on Melanocortin receptor 5 it was 4.6 µM; at Melanocortin receptor 3 it was 15 µM; at Melanocortin receptor 4, 6.4 µM.

Consider `NCC1CCCC(CN(Cc2ccccc2)C(=O)CCCc2c[nH]c3ccccc23)C1` (stereo not drawn), for which the Ki in assay [1] amounted to 2.7 µM; on Melanocortin receptor 5, 8.7 µM; at Melanocortin receptor 3 it was 24 µM; at Melanocortin receptor 4, 3.6 µM.

`NC1CCC(CC2CCC(N(CCc3c(F)cccc3Cl)C(=O)CCCc3c[nH]c4ccccc34)CC2)CC1` (stereo not drawn): the Ki in assay [1] was 2.1 µM; on Melanocortin receptor 5, 5.2 µM; at Melanocortin receptor 3, 24 µM; on Melanocortin receptor 4, 2.3 µM.

Take `NCCCCCCCN(C/C(Cl)=C/c1ccccc1)C(=O)CCCc1c[nH]c2ccccc12`: the inhibition constant (Ki) in assay [1] is 5 µM; on Melanocortin receptor 5, 29 µM; on Melanocortin receptor 3, 42 µM; on Melanocortin receptor 4 it was 7.4 µM.

On to `NCCCCCN(C/C=C\c1ccccc1)C(=O)CCc1c(Cc2ccc(O)cc2)[nH]c2ccccc12`, for which the Ki in assay [1] came to 3.3 µM; at Melanocortin receptor 5 it was 6.7 µM; at Melanocortin receptor 3, 27 µM; on Melanocortin receptor 4, 7.1 µM.

For `COc1ccccc1/C=C/CN(C(=O)CCCc1c[nH]c2ccccc12)C1CCC(CC2CCC(N)CC2)CC1` (stereo in doubt; form 2), the inhibitory constant (Ki) stood at 1.6 µM in assay [1], 5 µM on Melanocortin receptor 5, 31 µM at Melanocortin receptor 3 and 4.1 µM at Melanocortin receptor 4.

For `COc1cc(Cl)c(CN(C(=O)CCCc2c(Cc3ccc(O)cc3)[nH]c3ccccc23)C2CCC(CC3CCC(N)CC3)CC2)cc1OC` (stereo not drawn), the inhibition constant Ki in assay [1] was found to be 0.63 µM; at Melanocortin receptor 5, 11 µM; on Melanocortin receptor 3, 8.3 µM; on Melanocortin receptor 4, 1.9 µM.

Take `NCCCN(C/C=C/c1ccccc1)C(=O)CCc1c[nH]c2ccccc12`: the Ki in assay [1] came to 21 µM; on Melanocortin receptor 5, 11 µM; on Melanocortin receptor 3 it was 65 µM; on Melanocortin receptor 4 it was 81 µM.

Take `N=C(N)NCCN(Cc1ccc2ccccc2c1)C(=O)CCCc1c[nH]c2ccccc12`: the Ki was determined as 8.3 µM in assay [1], 8.3 µM at Melanocortin receptor 5, 204 µM on Melanocortin receptor 3 and 179 µM on Melanocortin receptor 4.

`CC1CC(CC2CCC(N(Cc3ccccc3)C(=O)CCCc3c[nH]c4ccccc34)C(C)C2)CCC1N` (stereo in doubt; form 3): the Ki in assay [1] was 1.7 µM; on Melanocortin receptor 5 it was 6.9 µM; at Melanocortin receptor 3 it was 6.6 µM; on Melanocortin receptor 4, 3.7 µM.

As to `N=C(N)NC1CCC(CC2CCC(N(C/C(Cl)=C/c3ccccc3)C(=O)CCCc3c[nH]c4ccccc34)CC2)CC1` (stereo in doubt; form 1), the Ki in assay [1] was determined as 5.4 µM; at Melanocortin receptor 5 it was 24 µM; at Melanocortin receptor 3 it was 9.6 µM; at Melanocortin receptor 4 it was 4 µM.

Take `NCCCN(Cc1ccc2ccccc2c1)C(=O)Cc1ccc2ccccc2c1`: the Ki in assay [1] was found to be 5.9 µM; on Melanocortin receptor 5, 267 µM; at Melanocortin receptor 3 it was 12 µM; on Melanocortin receptor 4, 16 µM.

On to `C/C(=C\c1ccccc1)CN(CCCCCCN)C(=O)c1cc2cc(O)ccc2[nH]1`, for which the Ki was 3.7 µM in assay [1], 20 µM on Melanocortin receptor 5, 27 µM at Melanocortin receptor 3 and 11 µM at Melanocortin receptor 4.

Take `NCCN(C(=O)[C@H](N)Cc1ccc(Cl)cc1)C1CCC2(CCCCC2)CC1`: the inhibition constant Ki in assay [1] came out at 3.7 µM; on Melanocortin receptor 5, 3.2 µM; at Melanocortin receptor 3, 1.7 µM; on Melanocortin receptor 4, 2.4 µM.

Consider `CCOc1cc(CN(C(=O)CCCc2c[nH]c3ccccc23)C2CCC(CC3CCC(N)CC3)CC2)ccc1OC` (stereo not drawn), for which the Ki in assay [1] was found to be 2.9 µM; at Melanocortin receptor 5, 9.5 µM; on Melanocortin receptor 3 it was 16 µM; at Melanocortin receptor 4, 2.1 µM.

On to `NC1CCC(CC2CCC(N(Cc3c(F)cccc3F)C(=O)CCCc3c[nH]c4ccccc34)CC2)CC1` (stereo not drawn), for which the Ki in assay [1] was determined as 1.8 µM; on Melanocortin receptor 5, 83 µM; at Melanocortin receptor 3, 52 µM; at Melanocortin receptor 4 it was 3 µM.

Turning to `NC1CCC(CC2CCC(N(C(=O)CCCc3c[nH]c4ccccc34)C3CCc4ccccc4C3)CC2)CC1` (stereo not drawn), the Ki in assay [1] was 4.5 µM; on Melanocortin receptor 5, 44 µM; at Melanocortin receptor 3, 278 µM; at Melanocortin receptor 4, 12 µM.

Turning to `NC1CCC(CC2CCC(N(C/C(Cl)=C/c3ccccc3)C(=O)COc3ccc4ccccc4c3)CC2)CC1` (stereo in doubt; form 2), the inhibitory constant (Ki) was determined as 1.5 µM in assay [1], 289 µM on Melanocortin receptor 3 and 5.9 µM at Melanocortin receptor 4.

For `NC1CCC(CC2CCC(N(Cc3c(Cl)cccc3Cl)C(=O)CCCc3c[nH]c4ccccc34)CC2)CC1` (stereo not drawn), the inhibitory constant (Ki) in assay [1] was determined as 2.5 µM; on Melanocortin receptor 5, 7.2 µM; at Melanocortin receptor 3, 25 µM; at Melanocortin receptor 4, 2.6 µM.

Consider `NC1CCC(CC2CCC(N(Cc3ccccc3F)C(=O)CCCc3c[nH]c4ccccc34)CC2)CC1` (stereo not drawn), for which the Ki in assay [1] amounted to 2.4 µM; on Melanocortin receptor 5 it was 7.2 µM; on Melanocortin receptor 3, 20 µM; at Melanocortin receptor 4, 3.7 µM.

For `NC1CCC(CC2CCC(N(C/C=C/c3ccccc3)C(=O)CCCc3c[nH]c4ccccc34)CC2)CC1` (stereo not drawn), the Ki in assay [1] stood at 2.7 µM; on Melanocortin receptor 5 it was 7.7 µM; at Melanocortin receptor 3 it was 16 µM; at Melanocortin receptor 4, 9.2 µM.

Regarding `C/C(=C\c1ccccc1)CN(CCCN)C(=O)C(=O)c1c[nH]c2ccccc12`, the Ki worked out at 1.8 µM in assay [1], 58 µM at Melanocortin receptor 5, 9.1 µM at Melanocortin receptor 3 and 6.2 µM on Melanocortin receptor 4.

In the case of `NCCN(C/C=C/c1ccccc1)C(=O)CCc1c[nH]c2ccccc12`, the Ki in assay [1] was found to be 17 µM; at Melanocortin receptor 5, 13 µM; at Melanocortin receptor 3 it was 51 µM; at Melanocortin receptor 4, 106 µM.

For `CC1CC(CC2CCC(N(C/C(Cl)=C/c3ccccc3)C(=O)CCCc3c[nH]c4ccccc34)C(C)C2)CCC1N` (stereo in doubt; form 2), the Ki stood at 2.2 µM in assay [1], 4.8 µM at Melanocortin receptor 5, 13 µM at Melanocortin receptor 3 and 3.1 µM on Melanocortin receptor 4.

Regarding `NC1CCC(CC2CCC(N(C/C(Cl)=C/c3ccccc3)C(=O)CCCc3c[nH]c4ccccc34)CC2)CC1` (stereo in doubt; form 1), the Ki turned out to be 0.51 µM in assay [1], 47 µM on Melanocortin receptor 5, 7.1 µM at Melanocortin receptor 3 and 4.1 µM at Melanocortin receptor 4.

In the case of `NC1CCC(CC2CCC(N(C/C(Cl)=C/c3ccccc3)C(=O)CCCc3c[nH]c4ccccc34)CC2)CC1` (stereo in doubt; form 5), the Ki amounted to 0.61 µM in assay [1], 3.2 µM on Melanocortin receptor 5, 21 µM at Melanocortin receptor 3 and 6 µM on Melanocortin receptor 4.

With `NCCCCCN(Cc1ccc2ccccc2c1)C(=O)CCc1c[nH]c2ccccc12`, the Ki in assay [1] turned out to be 14 µM; on Melanocortin receptor 5 it was 7.3 µM; on Melanocortin receptor 3 it was 58 µM; on Melanocortin receptor 4, 62 µM.

As for `NCCCCCN(C/C=C\c1ccccc1)C(=O)CCCc1c[nH]c2ccccc12`, the Ki in assay [1] was found to be 3 µM; at Melanocortin receptor 5, 2.2 µM; at Melanocortin receptor 3 it was 36 µM; on Melanocortin receptor 4 it was 16 µM.

Take `NCCN(C(=O)COc1ccc2ccccc2c1)C1CCC2(CCCCC2)CC1`: the inhibition constant (Ki) came out at 6 µM in assay [1], 3.4 µM on Melanocortin receptor 5, 2.1 µM on Melanocortin receptor 3 and 4.9 µM on Melanocortin receptor 4.

Take `NC1CCC(CC2CCC(N(C/C(Cl)=C/c3ccccc3)C(=O)COc3ccc4ccccc4c3)CC2)CC1` (stereo in doubt; form 1): the Ki in assay [1] was found to be 1.9 µM; at Melanocortin receptor 4, 4.7 µM.

Consider `COc1ccc(CN(C(=O)CCCc2c(Cc3ccc(O)cc3)[nH]c3ccccc23)C2CCC(CC3CCC(N)CC3)CC2)cc1Br` (stereo not drawn), for which the Ki in assay [1] is 2.6 µM; on Melanocortin receptor 5, 23 µM; at Melanocortin receptor 3, 132 µM; at Melanocortin receptor 4, 2.5 µM.

For `NCCN(C/C(Cl)=C/c1ccccc1)C(=O)CCCc1c[nH]c2ccccc12`, the Ki in assay [1] worked out at 5.6 µM; on Melanocortin receptor 3, 65 µM; at Melanocortin receptor 4, 5.8 µM.

As for `C/C(=C/c1ccccc1)CN(CCCCCN)C(=O)/C=C/c1c[nH]c2ccccc12`, the inhibitory constant (Ki) in assay [1] came to 2.7 µM; on Melanocortin receptor 5, 17 µM; on Melanocortin receptor 4, 99 µM.

For `NC1CCC(CC2CCC(N(C/C(Cl)=C/c3ccccc3)C(=O)COc3ccc4ccccc4c3)CC2)CC1` (stereo in doubt; form 6), the values for the Ki (in assay [1]; at Melanocortin receptor 4) were 1.9 µM and 5 µM, respectively.

`NCCN(CCCc1ccccc1)C(=O)CCc1c[nH]c2ccccc12`: the inhibition constant Ki in assay [1] is 21 µM; at Melanocortin receptor 5, 20 µM; at Melanocortin receptor 3 it was 127 µM.

With `NCCN(Cc1ccccc1)C(=O)CCCc1c[nH]c2ccccc12`, the inhibitory constant (Ki) in assay [1] turned out to be 22 µM; at Melanocortin receptor 3, 49 µM; on Melanocortin receptor 4, 21 µM.

As for `NC1CCC(CC2CCC(N(C/C(Cl)=C/c3ccccc3)C(=O)COc3ccc4ccccc4c3)CC2)CC1` (stereo in doubt; form 4), the Ki in assay [1] was 0.96 µM; on Melanocortin receptor 4, 4.4 µM.

Regarding `NCCCCCN(CCCc1ccccc1)C(=O)CCCc1c[nH]c2ccccc12`, the Ki in assay [1] came to 18 µM; at Melanocortin receptor 5, 19 µM; at Melanocortin receptor 3, 61 µM.

As to `NC1CCC(CC2CCC(N(C/C(Cl)=C/c3ccccc3)C(=O)COc3ccc4ccccc4c3)CC2)CC1` (stereo in doubt; form 7), the Ki in assay [1] was determined as 1.3 µM; at Melanocortin receptor 4, 4 µM.

Consider `NC1CCC(CC2CCC(N(C/C(Cl)=C/c3ccccc3)C(=O)COc3ccc4ccccc4c3)CC2)CC1` (stereo in doubt; form 3), for which the Ki in assay [1] came out at 0.41 µM; at Melanocortin receptor 4, 3.4 µM.

Regarding `NC1CCC(CC2CCC(N(Cc3ccncc3)C(=O)CCCc3c[nH]c4ccccc34)CC2)CC1` (stereo in doubt; form 1), the inhibitory constant (Ki) turned out to be 2.5 µM in assay [1], 28 µM at Melanocortin receptor 3 and 7 µM on Melanocortin receptor 4.

As to `NCCCN(C(=O)CCc1c[nH]c2ccccc12)C1CCc2ccccc2C1` (stereo not drawn), the Ki in assay [1] was found to be 3.7 µM; on Melanocortin receptor 4 it was 7 µM.
